Structures are written as SMILES.

Data set [1] is described as follows: Antioxidant activity assessed as ferric ion reducing activity using fe3+-TPTZ assessed as fe2+-TPTZ formation at 0.1 to 1 mM by spectrophotometry based FRAP assay. The format is physicochemical. Particulars: 1000 µM; call rule not given here.
The species named for data set [2] is Danio rerio. Nature of the data set: Toxicity in wild type zebrafish embryo in E3 medium assessed as teratogenicity treated at 9 to 190 nM for 2 days observed on 24 hrs of post fertilization by microscopy. Particulars: in vivo, 48 h, 0.19 µM. The class given is organism-based.
For data set [3], the species on record is Danio rerio. Nature of the data set: Toxicity in wild type zebrafish embryo in E3 medium treated for 2 days observed on 24 hrs of post fertilization by microscopy. The class given is organism-based. The settings on record: in vivo, 48 h.

Consider `COc1cc(=O)oc(/C=C/C(=O)O)c1C`, for which the Activity entry in data set [1] is “Active”; in the data set listed under Danio rerio [2], 100%.
With `COc1cc(=O)oc(/C=C/C=C/C(=O)O)c1C`, the Activity result is recorded as “Active” in data set [1] and “Non-toxic” in the data set filed under Danio rerio [3].

The values above are taken from ChEMBL document CHEMBL3396980, “Total synthesis of Herbarin A and B, determination of their antioxidant properties and toxicity in zebrafish embryo model” (Bioorg Med Chem Lett, 2015).
